Reference: PMC8102066 (eLife, 2021)
Where “and” joins values, the source holds several entries; their conditions need not be identical. Equal values may be shown once.

What was measured:
[1] = target: T1, mGluR2-I779W (Rattus norvegicus, UniProt P31421, I779W); test: Calcium imaging in HEK 293 T cells; assay type: cell-based; parameters: scale not given here
T1 construct: we performed calcium imaging experiments with mutations in the full-length mGluR2 background; expressed in transfected cells; host or cells: HEK 293 T
Method: Approximately 30 ROIs were analyzed per movie.

[2] = target: T2, mGluR2-C121A-3xTM4 (Rattus norvegicus, UniProt P31421, A677S/A681F/A685G/C121A); test: SiMPull subunit counting in the presence of ligands
T2 construct: expressed in transfected cells; host or cells: HEK 293 T (detergent lysate, pulled down by anti-HA antibody)

[3] = target: T3, mGluR2-C121A-3xTM4-I779A (Rattus norvegicus, UniProt P31421, A677S/A681F/A685G/C121A/I779A); test: as above; conditions: SNAP-mGluR2-C121A-3xTM4-I779A in presence of the ligand; single replicates per experiment day
T3 construct: expressed in transfected cells; host or cells: HEK 293 T (detergent lysate, pulled down by anti-HA antibody)

[4] = target: T4, mGluR2-3xTM4 (Rattus norvegicus, UniProt P31421, A677S/A681F/A685G); test: Inter-LBD FRET (N-terminal SNAP-tags), live cells; conditions: mGluR2-3xTM4, inter-LBD FRET
[5] = target: T5, mGluR3 (Rattus norvegicus, UniProt P31422); test: Inter-LBD FRET (N-terminal SNAP-tags), live cells; conditions: for FRET response amplitude: mGluR3, inter-LBD FRET
[6] = target: T6, mGluR3-3xTM4 (Rattus norvegicus, UniProt P31422, F690A/G694A/S686A); test: Inter-LBD FRET (N-terminal SNAP-tags), live cells; conditions: for FRET response amplitude: mGluR3-3xTM4, inter-LBD FRET
[7] = target: mGluR3-C127A (Rattus norvegicus, UniProt P31422, C127A); test: SiMPull subunit counting in the presence of ligands
[8] = target: mGluR2 (Rattus norvegicus, UniProt P31421); test: GIRK channel whole cell patch clamp in HEK 293 T cells
[9] = target: T6, mGluR3-3xTM4; test: as above; conditions: for GIRK current amplitude: mGluR3 3xTM4
[10] = target: T4, mGluR2-3xTM4; test: Calcium imaging (G protein chimera, GCaMP6f) in HEK 293 T cells; conditions: normalized to 1 mM glutamate, replicates
[11] = target: T5, mGluR3; test: as above
[12] = target: T6, mGluR3-3xTM4; test: as above; conditions: for Calcium response amplitude: normalized to 1 mM glutamate, replicates
[13] = read-out: Glutamate EC50, LBD FRET, normalized to saturating (1 mM) glutamate, unit inferred
[14] = read-out: Glutamate EC50, calcium imaging, normalized to saturating (1 mM) glutamate

T5 sequence (P31422 23-879): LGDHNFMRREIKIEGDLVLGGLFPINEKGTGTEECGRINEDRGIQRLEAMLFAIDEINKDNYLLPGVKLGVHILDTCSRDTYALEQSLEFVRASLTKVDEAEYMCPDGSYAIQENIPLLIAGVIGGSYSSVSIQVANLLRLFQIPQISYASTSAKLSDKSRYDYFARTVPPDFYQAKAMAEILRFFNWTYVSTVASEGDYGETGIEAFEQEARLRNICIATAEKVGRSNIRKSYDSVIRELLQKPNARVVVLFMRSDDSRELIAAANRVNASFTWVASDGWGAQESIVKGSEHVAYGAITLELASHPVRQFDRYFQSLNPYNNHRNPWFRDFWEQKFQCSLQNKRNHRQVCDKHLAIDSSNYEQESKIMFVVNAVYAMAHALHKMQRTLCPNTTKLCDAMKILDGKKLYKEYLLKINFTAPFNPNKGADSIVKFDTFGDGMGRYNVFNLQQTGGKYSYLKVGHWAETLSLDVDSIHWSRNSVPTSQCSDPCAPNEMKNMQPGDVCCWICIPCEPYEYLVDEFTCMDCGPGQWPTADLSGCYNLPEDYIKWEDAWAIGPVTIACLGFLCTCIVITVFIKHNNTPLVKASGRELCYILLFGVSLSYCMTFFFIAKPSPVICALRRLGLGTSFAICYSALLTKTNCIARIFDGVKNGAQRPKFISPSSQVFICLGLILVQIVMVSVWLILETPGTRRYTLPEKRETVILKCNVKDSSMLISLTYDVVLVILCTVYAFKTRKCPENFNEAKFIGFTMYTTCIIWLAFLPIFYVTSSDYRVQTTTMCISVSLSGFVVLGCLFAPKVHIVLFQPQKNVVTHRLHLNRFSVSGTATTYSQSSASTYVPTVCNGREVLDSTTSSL
Sequence of mGluR3-C127A (P31422 23-879 C127A): as the sequence (P31422 23-879) above, with C105A counted along it
T1 sequence (P31421 19-872 I779W): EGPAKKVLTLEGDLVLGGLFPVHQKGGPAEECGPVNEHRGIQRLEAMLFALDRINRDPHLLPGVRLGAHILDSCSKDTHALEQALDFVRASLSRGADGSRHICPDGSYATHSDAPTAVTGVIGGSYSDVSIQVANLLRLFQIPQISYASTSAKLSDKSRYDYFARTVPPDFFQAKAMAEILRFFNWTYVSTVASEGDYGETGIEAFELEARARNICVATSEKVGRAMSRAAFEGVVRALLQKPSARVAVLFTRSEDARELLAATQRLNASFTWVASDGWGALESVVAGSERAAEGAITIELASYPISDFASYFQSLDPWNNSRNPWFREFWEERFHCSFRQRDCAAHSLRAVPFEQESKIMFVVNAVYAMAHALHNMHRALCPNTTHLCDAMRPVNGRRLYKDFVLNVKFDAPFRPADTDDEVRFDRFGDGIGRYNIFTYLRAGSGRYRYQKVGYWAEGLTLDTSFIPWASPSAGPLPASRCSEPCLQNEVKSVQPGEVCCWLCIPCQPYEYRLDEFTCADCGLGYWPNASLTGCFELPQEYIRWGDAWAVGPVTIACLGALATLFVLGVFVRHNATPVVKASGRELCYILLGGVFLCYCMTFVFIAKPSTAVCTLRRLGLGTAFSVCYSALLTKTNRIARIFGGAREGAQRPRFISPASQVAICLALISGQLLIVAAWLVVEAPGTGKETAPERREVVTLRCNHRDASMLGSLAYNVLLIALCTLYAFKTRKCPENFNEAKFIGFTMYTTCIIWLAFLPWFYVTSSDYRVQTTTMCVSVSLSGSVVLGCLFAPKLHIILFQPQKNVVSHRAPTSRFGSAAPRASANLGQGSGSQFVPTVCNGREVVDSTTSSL
T6 sequence (P31422 23-879 S686A/F690A/G694A): as the sequence (P31422 23-879) above, with S664A, F668A, G672A counted along it
T3 sequence (P31421 19-872 C121A/A677S/A681F/A685G/I779A): as the sequence (P31421 19-872 I779W) above, with C103A, A659S, A663F, A667G, W761A counted along it
Sequence of mGluR2 (P31421 19-872): as the sequence (P31421 19-872 I779W) above, with W761I counted along it
T4 sequence (P31421 19-872 A677S/A681F/A685G): as the sequence (P31421 19-872 I779W) above, with A659S, A663F, A667G, W761I counted along it
T2 sequence (P31421 19-872 C121A/A677S/A681F/A685G): as the sequence (P31421 19-872 I779W) above, with C103A, A659S, A663F, A667G, W761I counted along it

With `N[C@@H](CCC(=O)O)C(=O)O` [glutamate] the Calcium response amplitude ([1]; Glutamate concentration 10 nM) was 0.00, the Calcium response amplitude ([1]; Glutamate concentration 5 uM) was 0.52 and 0.53 and the Calcium response amplitude ([1]; Glutamate concentration 10 uM) was 0.95 and 0.79 and 0.94 and 0.76. For the same compound, the Calcium response amplitude ([1]; Glutamate concentration 100 uM) was 1.00, the Calcium response amplitude ([1]; Glutamate concentration 1 mM) was 1.00 and the “% Dimerization” value ([2]; SNAP-mGluR2-C121A-3xTM4 in presence of the ligand, single replicates per experiment day) was 89.26% and 88.28% and 81.34% and 81.93% and 82.70% and 80.09%. For the same compound, the “effect of ligand on dimerization (SiMPull)” value ([2]; saturating concentration) was “clear increase in dimerization”, the “% Dimerization” value [3] was 44.05% and 34.78% and 55.93% and 49.13% and 47.14% and 45.12% and the FRET response amplitude ([4]; Glutamate 10 nM) was 0.00. The FRET response amplitude ([4]; Glutamate 100 nM) was 0.00, the FRET response amplitude ([4]; Glutamate 3 uM) was 0.10 and the FRET response amplitude ([4]; Glutamate 10 uM) was 0.49 and 0.37. The FRET response amplitude ([4]; Glutamate 100 uM) was 1.00 and 0.97, the FRET response amplitude ([4]; Glutamate 1 mM) was 1.00 and the FRET response amplitude ([5]; Glutamate 1 nM) was 0.00. For the same compound, the FRET response amplitude ([5]; Glutamate 10 nM) was 0.00, the FRET response amplitude ([5]; Glutamate 1 uM) was 0.66 and 0.53 and the FRET response amplitude ([5]; Glutamate 3 uM) was 1.00 and 0.63. The FRET response amplitude ([5]; Glutamate 10 uM) was 1.00 and 0.86, the FRET response amplitude ([5]; Glutamate 100 uM) was 1.00 and the EC50 [5, 13] was 0.64 ± 0.1 µM. For the same compound, the FRET response amplitude ([6]; Glutamate 1 nM) was 0.00, the FRET response amplitude ([6]; Glutamate 10 nM) was 0.00 and the FRET response amplitude ([6]; Glutamate 1 uM) was 0.63 and 0.58. The FRET response amplitude ([6]; Glutamate 3 uM) was 0.78 and 0.90, the FRET response amplitude ([6]; Glutamate 10 uM) was 0.99 and 0.96 and 1.05 and the FRET response amplitude ([6]; Glutamate 1 mM) was 1.00. The EC50 [6, 13] was 0.67 ± 0.05 µM, the “% Dimerization” value ([7]; SNAP-mGluR3-C127A in presence of the ligand, single replicates per experiment day) was 83.23% and 72.86% and 68.26% and 70.70% and 67.67% and 71.63% and the “effect of ligand on dimerization (SiMPull)” value ([7]; saturating concentration) was “increased dimerization”. For the same compound, the GIRK current amplitude ([8]; Glutamate 10 nM) was 0.000, the GIRK current amplitude ([8]; Glutamate 10 uM) was 0.889 and 0.827 and 0.749 and 0.879 and 0.952 and the GIRK current amplitude ([8]; Glutamate 100 uM) was 0.942 and 1.150 and 0.849 and 0.991. For the same compound, the GIRK current amplitude ([8]; Glutamate 1 mM) was 1.000, the GIRK current amplitude ([9]; Glutamate 10 nM) was 0.000 and the GIRK current amplitude ([9]; Glutamate 10 uM) was 0.695 and 0.866. For the same compound, the GIRK current amplitude ([9]; Glutamate 100 uM) was 1.078 and 0.767 and 0.806, the GIRK current amplitude ([9]; Glutamate 1mM) was 1.000 and the EC50 ([9]; read-out: Glutamate EC50, GIRK activation, normalized to saturating (1 mM) glutamate, unit inferred) was 1.02 ± 0.17 µM. For the same compound, the Calcium response amplitude ([10]; Glutamate 1 nM) was 0.00, the Calcium response amplitude ([10]; Glutamate 10 nM) was 0.00 and the Calcium response amplitude ([10]; Glutamate 100 nM) was 0.26 and 0.30 and 0.14. The Calcium response amplitude ([10]; Glutamate 300 nM) was 0.49 and 0.41, the Calcium response amplitude ([10]; Glutamate 1 uM) was 0.54 and 0.70 and 0.62 and 0.63 and 0.75 and the Calcium response amplitude ([10]; Glutamate 3 uM) was 0.98 and 0.89 and 0.90 and 0.80 and 0.78 and 1.01. For the same compound, the Calcium response amplitude ([10]; Glutamate 10 uM) was 0.95 and 1.00 and 0.99, the Calcium response amplitude ([10]; Glutamate 100 uM) was 0.96 and 0.99 and 1.00 (2×) and the Calcium response amplitude ([10]; Glutamate 1 mM) was 1.00. It also gave a Calcium response amplitude ([11]; Glutamate 1 nM, mGluR3) of 0.00, a Calcium response amplitude ([11]; Glutamate 1 nM, normalized to 1 mM glutamate, replicates) of 0.00 and a Calcium response amplitude ([11]; Glutamate 10 nM, mGluR3) of 0.00. The Calcium response amplitude ([11]; Glutamate 10 nM, normalized to 1 mM glutamate, replicates) was 0.00, the Calcium response amplitude ([11]; Glutamate 100 nM, mGluR3) was 0.23 and the Calcium response amplitude ([11]; Glutamate 100 nM, normalized to 1 mM glutamate, replicates) was 0.23. The Calcium response amplitude ([11]; Glutamate 1 uM, mGluR3) was 0.61 and 0.64 and 0.67 and 0.55, the Calcium response amplitude ([11]; Glutamate 1 uM, normalized to 1 mM glutamate, replicates) was 0.61 and 0.64 and 0.67 and 0.55 and the Calcium response amplitude ([11]; Glutamate 2 uM, mGluR3) was 0.66 and 0.77. The Calcium response amplitude ([11]; Glutamate 2 uM, normalized to 1 mM glutamate, replicates) was 0.66 and 0.77, the Calcium response amplitude ([11]; Glutamate 3 uM, mGluR3) was 0.83 and 0.79 and the Calcium response amplitude ([11]; Glutamate 3 uM, normalized to 1 mM glutamate, replicates) was 0.83 and 0.79. The Calcium response amplitude ([11]; Glutamate 5 uM, mGluR3) was 0.89 and 0.95 and 0.77, the Calcium response amplitude ([11]; Glutamate 5 uM, normalized to 1 mM glutamate, replicates) was 0.89 and 0.95 and 0.77 and the Calcium response amplitude ([11]; Glutamate 10 uM, mGluR3) was 0.99 and 0.95 and 0.92. The Calcium response amplitude ([11]; Glutamate 10 uM, normalized to 1 mM glutamate, replicates) was 0.99 and 0.95 and 0.92, the Calcium response amplitude ([11]; Glutamate 1 mM, mGluR3) was 1.00 and the Calcium response amplitude ([11]; Glutamate 1 mM, normalized to 1 mM glutamate, replicates) was 1.00. The EC50 [11, 14] was 0.56 ± 0.06 µM, the Calcium response amplitude ([12]; Glutamate 100 nM) was 0.028 and 0.00 and the Calcium response amplitude ([12]; Glutamate 300 nM) was 0.11 (2×) and 0.00 (2×). For the same compound, the Calcium response amplitude ([12]; Glutamate 3 uM) was 0.32 and 0.20 and 0.21 and 0.35, the Calcium response amplitude ([12]; Glutamate 10 uM) was 0.27 and 0.56 and 0.69 and the Calcium response amplitude ([12]; Glutamate 100 uM) was 0.89 and 0.81. For the same compound, the EC50 ([12]; read-out: Glutamate EC50 (micromolar), calcium imaging, Fig 3F source data) was 11 µM and the EC50 [12, 14] was 11 ± 0.1 µM.
